Test results: US20110178062A1, “INDOLE AND BENZOTHIOPHENE COMPOUNDS AS MODULATORS OF THE HISTAMINE H3 RECEPTOR” (priority 2007, published 2011)

Target: T1, cloned human H3 receptors, stably expressed in SK-N-MC cells (Homo sapiens, UniProt Q9Y5N1)
T1 construct: expressed in transfected cells; host or cells: SK-N-MC cells
Experiment: H3 Receptor Binding (Human)
Details: average of the results obtained
Experimental: Binding of compounds to the cloned human H3 receptors, stably expressed in SK-N-MC cells, was performed as described by Barbier, A. J. et al. (Br. J. Pharmacol. 2004, 143(5), 649-661). Data for compounds tested in this assay are presented in Table 1 as an average of the results obtained.

T1 sequence (Q9Y5N1 whole entry): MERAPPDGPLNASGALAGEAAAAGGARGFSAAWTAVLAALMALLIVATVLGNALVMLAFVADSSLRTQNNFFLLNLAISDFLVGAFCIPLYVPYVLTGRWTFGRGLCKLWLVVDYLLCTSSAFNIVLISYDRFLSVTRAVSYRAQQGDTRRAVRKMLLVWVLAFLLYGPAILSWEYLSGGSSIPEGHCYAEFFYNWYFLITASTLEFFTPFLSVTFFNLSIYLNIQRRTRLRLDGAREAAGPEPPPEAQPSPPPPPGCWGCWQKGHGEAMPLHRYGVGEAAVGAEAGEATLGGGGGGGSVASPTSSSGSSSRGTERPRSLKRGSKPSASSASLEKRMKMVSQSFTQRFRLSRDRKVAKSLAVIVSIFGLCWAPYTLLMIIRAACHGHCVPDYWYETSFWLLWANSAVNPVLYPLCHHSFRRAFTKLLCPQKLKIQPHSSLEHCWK

For `O=C(c1ccc2c(CN3CCN(C4CCC4)CC3)c[nH]c2c1)N1CCC(c2ccccc2)CC1` [Example 43, [3-(4-Cyclobutyl-piperazine-1-ylmethyl)-1H-indol-6-yl]-(4-phenyl-piperidin-1-yl)-methanone], the Ki was 8 nM.

For `CC(C)N1CCN(C(=O)c2ccc3c(CN4CCN(c5ccccn5)CC4)c[nH]c3c2)CC1` [Example 46, (4-Isopropyl-piperazin-1-yl)-[3-(4-pyridin-2-yl-piperazin-1-ylmethyl)-1H-indol-6-yl]-methanone], the Ki was 3 nM.

`CC(=O)N1CCN(Cc2c[nH]c3cc(C(=O)N4CCN(C(C)C)CC4)ccc23)CC1` [Example 48, 1-{4-[6-(4-Isopropyl-piperazine-1-carbonyl)-1H-indol-3-ylmethyl]-piperazin-1-yl}-ethanone] showed a Ki of 5 nM.

`CC(C)N1CCN(C(=O)c2ccc3c(CN4CCN(c5nccs5)CC4)c[nH]c3c2)CC1` [Example 49, (4-Isopropyl-piperazin-1-yl)-[3-(4-thiazol-2-yl-piperazin-1-ylmethyl)-1H-indol-6-yl]-methanone] showed a Ki of 7 nM.

For `CC(=O)N1CCCN(Cc2c[nH]c3cc(C(=O)N4CCN(C(C)C)CC4)ccc23)CC1` [Example 50, 1-{4-[6-(4-Isopropyl-piperazine-1-carbonyl)-1H-indol-3-ylmethyl]-[1,4]diazepam-1-yl}-ethanone], the Ki was 3 nM.

`CC(C)N1CCN(C(=O)c2ccc3c(CN4CCN(Cc5ccccc5)CC4)c[nH]c3c2)CC1` [Example 51, [3-(4-Benzyl-piperazin-1-ylmethyl)-1H-indol-6-yl]-(4-isopropyl-piperazin-1-yl)-methanone] gave a Ki of 2 nM.

Compound `CC(C)N1CCN(C(=O)c2ccc3c(CN4CCN(c5ccc(-c6ccccc6)cc5)CC4)c[nH]c3c2)CC1` [Example 52, [3-(4-Biphenyl-4-yl-piperazin-1-ylmethyl)-1H-indol-6-yl]-(4-isopropyl-piperazin-1-yl)-methanone] has a Ki of 12 nM.

Work on `CC(C)N1CCN(C(=O)c2ccc3c(CN4CCN(C(c5ccccc5)c5ccccc5)CC4)c[nH]c3c2)CC1` [Example 53, [3-(4-Benzydryl-piperazin-1-ylmethyl)-1H-indol-6-yl]-(4-isopropyl-piperazin-1-yl)-methanone] yielded a Ki of 19 nM.

Compound `CC(C)N1CCN(C(=O)c2ccc3c(CN4CCN(S(C)(=O)=O)CC4)c[nH]c3c2)CC1` [Example 54, (4-Isopropyl-piperazin-1-yl)-[3-(4-methanesulfonyl-piperazin-1-ylmethyl)-1H-indol-6-yl]-methanone] has a Ki of 12 nM.

`CC(C)N1CCN(C(=O)c2ccc3c(CN4CCC(Cc5ccccc5)CC4)c[nH]c3c2)CC1` [Example 55, [3-(4-Benzyl-piperidin-1-ylmethyl)-1H-indol-6-yl]-(4-isopropyl-piperazin-1-yl)-methanone] gave a Ki of 1 nM.

For `CC(C)N1CCN(C(=O)c2ccc3c(CN4CCN(CCc5ccccc5)CC4)c[nH]c3c2)CC1` [Example 56, (4-Isopropyl-piperazin-1-yl)-[3-(4-phenethyl-piperazin-1-ylmethyl)-1H-indol-6-yl]-methanone], the Ki was 2 nM.

With `CC(C)N1CCN(C(=O)c2ccc3c(CN4CCCOCC4)c[nH]c3c2)CC1` [Example 59, (4-Isopropyl-piperazin-1-yl)-(3-[1,4]-oxazepan-4-ylmethyl-1H-indol-6-yl)-methanone] the Ki was 1 nM.

Compound `CC(=O)N(C)C1CCN(Cc2c[nH]c3cc(C(=O)N4CCN(C(C)C)CC4)ccc23)C1` (stereo not drawn) [Example 60, N-{1-[6-(4-Isopropyl-piperazine-1-carbonyl)-1H-indol-3-ylmethyl]-pyrrolidin-3-yl}-N-methyl-acetamide] has a Ki of 1 nM.

`CC(C)N1CCN(C(=O)c2ccc3c(CN4CCN(C(=O)N5CCOCC5)CC4)c[nH]c3c2)CC1` [Example 61, (4-Isopropyl-piperazin-1-yl)-{3-[4-(morpholine-4-carbonyl)-piperazin-1-ylmethyl]-1H-indol-6-yl}-methanone] was tested, and the Ki was 3 nM.

`CC(C)N1CCN(C(=O)c2ccc3c(CN4CCN(C(=O)c5ccncc5)CC4)c[nH]c3c2)CC1` [Example 62, (4-Isopropyl-piperazin-1-yl)-{3-[4-(pyridine-4-carbonyl)-piperazin-1-ylmethyl]-1H-indol-6-yl}-methanone] showed a Ki of 7 nM.
